# Test results published in patent publication US20250346890A1, “LEUKEMIA TREATMENT” (Deutsches Krebsforschungszentrum, priority 2019, published 2025).
# B1: RSPO3: human R-spondin 3 protein (SEQ ID NO:2); conditioned medium or recombinant (Peprotech 120-44) (protein, listed as Homo sapiens)
# chain: MHLRLISWLFIILNFMEYIGSQNASRGRRQRRMHPNVSQGCQGGCATCSDYNGCLSCKPRLFFALERIGMKQIGVCLSSCPSGYYGTRYPDINKCTKCKADCDTCFNKNFCTKCKSGFYLHLGKCLDNCPEGLEANNHTMECVSIVHCEVSEWNPWSPCTKKGKTCGFKRGTETRVREIIQHPSAKGNLCPPTNETRKCTVQRKKCQKGERGKKGRERKRKKPNKGESKEAIPDSKSLESSKEIPEQRENKQQQKKRKVQDKQKSVSVSTVH
# B2: RSPO1: secreted R-spondin protein; conditioned medium or recombinant human RSPO1 (Peprotech 120-38) (protein, UniProt Q2MKA7 21-263, looked up)
# R-spondin-1: SRGIKGKRQRRISAEGSQACAKGCELCSEVNGCLKCSPKLFILLERNDIRQVGVCLPSCPPGYFDARNPDMNKCIKCKIEHCEACFSHNFCTKCKEGLYLHKGRCYPACPEGSSAANGTMECSSPAQCEMSEWSPWGPCSKKQQLCGFRRGSEERTRRVLHAPVGDHAACSDTKETRRCTVRRVPCPEGQKRRKGGQGRRENANRNLARKESKEAGAGSRRRKGQQQQQQQGTVGPLTSAGPA
# How the values were obtained:
# BMP4 signaling = assay: BRE reporter assay in HEPG2 cells stimulated by BMP4; assay type: cell-based, human; details: HEPG2 cells
# Procedure: BRE luciferase assays were executed using 300,000 ml^−1 of HEPG2 cells in 24-well plates. PGL3-BRE-Luciferase (500 ng ml^−1) and pRL-TK-Renilla plasmids (50 ng ml^−1) were transfected using Lipofectamine 3000. After 24 hours, cells were serum starved 2 hours and stimulated 14-16 hours with 80 ng ml^−1 recombinant human BMP4 protein (R&D systems 314-BP) along with AP tagged RSPO1-4 or flag tagged RSPO1-3 conditioned medium. Luciferase activity was measured with the Dual luciferase reporter assay system (Promega E1960). Firefly luminescence (BRE) was normalized to Renilla. TOPFlash luciferase assays were carried out as previously described (Berger et al. (2017), EMBO Rep 18, 712-725, doi: 10.15252/embr.201643585). […] Statistical analyses were made with the PRISM7 software using unpaired t-test or one-way ANOVA test. Not significant (ns) P>0.05, *P<0.05, **P<0.01, ***P<0.001, and ****P<0.0001.
# THP-1 cells [1] = assay: Monocyte-macrophage differentiation of THP-1 cells (FACS / qRT-PCR of CD14, CD11B); assay type: cell-based, human
# Procedure: Cultured cells were lysed in Macherey-Nagel RAI buffer containing 1% β-mercaptoethanol and total RNAs were isolated using NucleoSpin RNA isolation kit (Macherey-Nagel 740955). Reverse transcription and PCR amplification were performed. Primers used in this study are listed in Supplementary Table 1. Graphs show relative gene expressions to GAPDH. […] Statistical analyses were performed using PRISM7 software with unpaired t-test or one-way ANOVA test.
# For analyzing macrophage differentiation of THP-1, cells were harvested, pelleted and resuspended in ice-cold blocking buffer (PBS supplemented with 1% BSA and 0.1% NaN3). Cells were treated with Fc Receptor Binding Inhibitor as recommended by the manufacturer (eBioscience 14916173) and stained directly with FITC/APC-conjugated antibodies diluted in blocking buffer or with non-conjugated primary antibodies followed by fluorochrome-labeled secondary antibodies. Isotype-matched antibodies were used as controls. Dead cells were excluded by counterstaining with propidium iodide. For analyzing apoptosis of THP-1, cells were fixed in 4% PFA, permeabilized by MeOH and blocked with PBS supplemented with 1% BSA and 0.1% Tween-20. Cells were stained with anti-active Caspase-3 antibody and fluorochrome-labeled secondary antibody. FACS Samples were analyzed with FACSCalibur or FACSCanto (BD Biosciences). 10,000 events per samples were acquired, and results were processed with Cell Quest or FACSDiva software (BD Biosciences). For BMP4 stimulation, cells were treated with 5 and 25 ng ml^−1 recombinant human BMP4 protein (R&D systems 314-BP). 100, 300 and 1000 nM LDN […] (Tocris 6053) were used for rescue assay. For the THP-1 cell number quantification and differentiation validation in vivo, bone marrow cells were harvested from tibias of NSG mice and red blood cells were removed by ACK Lysing Buffer (Gibco A1049201). Cells were stained and analyzed as above. Here, 50,000 PI-negative events per samples were acquired.
# (§1) THP-1 cells were treated with 0.3, 1.0 and 3.0 μg ml^−1 goat polyclonal anti-RSPO2 antibodies (R&D systems AF3266) or goat polyclonal GFP antibodies (ABIN 100085). After 48 hours, medium was replaced including fresh antibodies—and incubated another 24 hours. Western blot analysis and FACS analyses were performed as discussed above.
# (§2) The sequences of shRSPO2 and shControl (Table 1) were synthesized, inserted into the transfer plasmid Tet-pLKO-puro (Addgene 21915) and validated by sequencing. Lentivirus was produced with the 3rd generation lentiviral system according to the protocol available at the Trono lab as described (www.epfl.ch/labs/tronolab/). THP-1 cells were infected with lentivirus with 8 μg ml^−1 Polybrene (Sigma TR-1003) and selected with 0.5 μg ml^−1 puromycin (Calbiochem 540411). Single cell clones were obtained by limiting dilutions. The shRNA expression of clones was validated by monitoring RSPO2 expression after doxycycline treatment (1.0 μg ml^−1) for 3 days.
# THP-1 cells [2] = assay: THP-1 cell growth and colony formation assay; assay type: cell-based, human; details: TetOn-shRSPO2 clones, Dox treatment
# Procedure: as §2
# 1,000 cells per well of Dox-inducible THP-1 clones were seeded into 24-well plates in RPMI+10% FBS, 1% penicillin-streptomycin, 1 mM sodium pyruvate, 2 mM L-glutamine and 0.5% methylcellulose, with or without Doxycycline (1 μg ml^−1). After 8 days incubation, microscopic dark field images were taken using LEICA DMIL microscope/Canon DS126311 camera.
# THP-1 cells [3] = assay: THP-1 AML xenograft in NSG mice; assay type: in vivo, mouse
# Procedure: For analyzing macrophage differentiation of THP-1, cells were harvested, pelleted and resuspended in ice-cold blocking buffer (PBS supplemented with 1% BSA and 0.1% NaN3). […] Isotype-matched antibodies were used as controls. Dead cells were excluded by counterstaining with propidium iodide. For analyzing apoptosis of THP-1, cells were fixed in 4% PFA, permeabilized by MeOH and blocked with PBS supplemented with 1% BSA and 0.1% Tween-20. […] FACS Samples were analyzed with FACSCalibur or FACSCanto (BD Biosciences). 10,000 events per samples were acquired, and results were processed with Cell Quest or FACSDiva software (BD Biosciences). […] For the THP-1 cell number quantification and differentiation validation in vivo, bone marrow cells were harvested from tibias of NSG mice and red blood cells were removed by ACK Lysing Buffer (Gibco A1049201). Cells were stained and analyzed as above. Here, 50,000 PI-negative events per samples were acquired.
# NOD SCID gamma (NSG) mice were recruited from the Center for Preclinical Research, DKFZ, Heidelberg. […] Randomized mouse cohorts (n=6-7 mice/group) were treated with Dox or vehicle throughout the study. Treatment started 3 days prior to cell transplantation via drinking water consisting 1 mg/ml Dox and 5% saccharose, or 5% saccharose only. […] 500,000 cells in 100 μl PBS were injected intravenously into the lateral tail vein of 7-8-week-old female mice. Besides regular health checks, mouse body weight was taken twice per week throughout the experiment. Heparinized blood was collected from the tail vein at days 9 and 22 after transplantation. Terminal blood collection was performed under isoflurane anesthesia followed by cervical dislocation. Necropsies were taken as indicated or when mice reached a stop criterion of the German Society of Laboratory Animal Sciences (GV-SOLAS), until here defined as survival. All mouse experiments were in accordance with the approved guidelines of the local Governmental Committee for Animal Experimentation (RP Karlsruhe, Germany, license G140/19).
# For each reaction, 25 ng genomic DNA was used. A standard curve was generated with genomic DNA extracted from NSG mice blood containing known numbers of THP-1 cells and used for converting qPCR fluorescent signals to actual cell numbers. Normal NSG mice blood and nuclease free water were used as negative controls.
# Xenopus embryos = assay: Crispr-Cas9-mediated Xenopus rspo2 knockout embryos; assay type: in vivo, Xenopus tropicalis
# Smad1 = assay: Western blot of pSmad1 and tSmad1 in THP-1 cells; assay type: cell-based, human; details: THP-1 cells treated with RSPO2 siRNA plus inhibitor
# Procedure: Cultured cells were rinsed with cold PBS and lysed in Triton lysis buffer ([…] Tris-Cl, pH 7.5, 1% Triton X-100, 150 mM NaCl, 1 mM EDTA, 1 mM EGTA, 1 mM β-glycerophosphate, 1 mM Na3 VO4) or RIPA buffer with complete Protease Inhibitor Cocktail (Roche 11697498001). Lysates were mixed with Laemmli buffer with β-mercaptoethanol and boiled at 95° C. for 5 min to prepare SDS-PAGE samples. Western blot images were acquired with SuperSignal West pico ECL (ThermoFisher 34580) or Clarity Western ECL (Biorad 1705061) using LAS-3000 system (FujiFilm). Quantification of blots was done using ImageJ software.
# as §1
# ALK3RD = target: T1, ALK3RD (Homo sapiens, UniProt P36894, Q233D); assay: BRE reporter assay in HEPG2 cells with constitutively active ALK3; assay type: cell-based; details: RSPO treatment
# T1 construct: expressed in transfected cells; host or cells: HEPG2
# T1 sequence (P36894 24-532 Q233D): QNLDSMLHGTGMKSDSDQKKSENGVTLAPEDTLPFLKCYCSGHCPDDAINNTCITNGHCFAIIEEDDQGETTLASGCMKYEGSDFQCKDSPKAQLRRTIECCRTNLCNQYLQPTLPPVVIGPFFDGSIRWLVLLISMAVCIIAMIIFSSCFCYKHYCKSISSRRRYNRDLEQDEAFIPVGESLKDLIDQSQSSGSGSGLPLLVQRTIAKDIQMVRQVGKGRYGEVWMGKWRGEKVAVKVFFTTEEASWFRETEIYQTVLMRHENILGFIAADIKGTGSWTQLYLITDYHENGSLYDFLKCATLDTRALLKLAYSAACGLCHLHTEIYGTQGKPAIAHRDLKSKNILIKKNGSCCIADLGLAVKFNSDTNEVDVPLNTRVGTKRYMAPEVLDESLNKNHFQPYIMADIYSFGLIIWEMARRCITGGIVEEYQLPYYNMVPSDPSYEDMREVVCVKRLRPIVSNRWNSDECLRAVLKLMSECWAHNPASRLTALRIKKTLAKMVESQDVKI
# Excerpt: Alkaline phosphatase (AP) fusions with RSPOs (human RSPO1^ΔC-AP-pCDNA3, RSPO2^ΔC-AP-pCDNA3, RSPO2^ΔC-AP-pCS2+, RSPO3^ΔC-AP-pCDNA3, murine RSPO4^ΔC-pCDNA3) were generated by replacing the C-terminal domain (ΔC) by AP and used to produce conditioned media. Human RSPO2 wild-type (RSPO2), Furin1 and Furin2 deletion mutants (RSPO2^ΔFU), and TSP1 domain deletion mutant (RSPO2^ΔTSP) are ORFs lacking the C-terminal domain, C-terminally tagged with a Flag-tag and subcloned into pCS2+. R1-TSP^R2, R1-TSP^R2-AP and R1-TSP^R2-Flag plasmids were generated by fusion PCR and cloned in pCS2+. Conditioned media from all RSPO constructs were adjusted to equal concentration by western blot and AP activity measurement, and further validated by WNT reporter assay using HEK293T cells. The extracellular domain of ALK3 (ALK3^ECD) was subcloned in AP-pCS2+ for generating conditioned medium and used in in vitro binding assays. Constitutively active forms of ALK2,3,6 (ALK^QD) were generated by Gln-Asp mutations as described in Fujii et al. (1999), Mol Biol Cell 10, 3801-3813, doi: 10.1091/mbc.10.11.3801. HA-tagged ALK3 was a gift from Dr. D. Koinuma (Goto et al. (2007), J Biol Chem 282, 20603-20611, doi: 10.1074/jbc.M702100200). For Xenopus mRNA microinjection, Xenopus laevis BMP4-pCS2+, myc-tagged RSPO2^ΔC-myc-pCS2+, RSPO2^ΔFU-myc-pCS2+ and RSPO2^ΔTSP-myc-pCS2+ plasmids, DNALK3-pCS2+, membrane-RFP, EYFP-tagged human ALK3-pCS2+ were used for in vitro transcription. Human ZNRF3 and ZNRF3^ΔRING constructs were gifts from Dr. F. Cong (Novartis; Hao et al. (2012), Nature 485, 195-200, doi: 10.1038/nature11019), and ORFs were subcloned in flag-pCS2+ for in vitro transcription.
# BRE luciferase assays were executed using 300,000 ml^−1 of HEPG2 cells in 24-well plates. PGL3-BRE-Luciferase (500 ng ml^−1) and pRL-TK-Renilla plasmids (50 ng ml^−1) were transfected using Lipofectamine 3000. […] Luciferase activity was measured with the Dual luciferase reporter assay system (Promega E1960). Firefly luminescence (BRE) was normalized to Renilla. […]
molecule,measurement,setting,value
"CN(C)c1cccc2c(S(=O)(=O)NCCCCCN)cccc12 [monodansylcadaverin, reference compound]",effect on inhibition of BMP signaling by RSPO2,BMP4 signaling; BMP4+RSPO2,eliminated inhibition of BMP signaling by RSPO2
"shRSPO2: Dox-inducible shRNA against RSPO2, SEQ ID NO:10, expressed in THP-1 clones (GACAATGGGTGTAGCCGATCTCGAGATCGGCTACACCCATTGTC)",BMP signaling and monocyte-macrophage differentiation,"THP-1 cells [1]; THP-1 TetOn-shRSPO2 clones, Dox-administration",induced BMP signaling and robust monocyte-macrophage differentiation
same,THP-1 cell growth,THP-1 cells [2],reduced THP-1 cell growth
same,colony formation,THP-1 cells [2],reduced
same,prolongation of disease-free survival,"THP-1 cells [3]; NSG mice injected with TetOn-shRSPO2 THP-1 cell line #1, Dox induction, still alive at reporting time",at least 2.3 fold
same,survival,"THP-1 cells [3]; NSG mice injected with TetOn-shRSPO2 THP-1 cell line #2, Dox induction",survived almost twice as long
same,tumor burden,"THP-1 cells [3]; NSG mice, TetOn-shRSPO2 THP-1 cells, Dox induction",reduced tumor burden
same,macrophage differentiation in bone marrow,"THP-1 cells [3]; NSG mice, both TetOn-shRSPO2 cell lines, Dox induction",enhanced macrophage differentiation
"gRNA: previously established guide RNA for Crispr-Cas9 rspo2 knockout, TGACTCCATAGTATCCAGGA (SEQ ID NO:11) (listed as DNA, chemistry not given here)",embryo phenotype,Xenopus embryos,mildly ventralized embryos
same,BMP target gene expression,Xenopus embryos; sizzled in situ hybridization,increased BMP target gene expression
c1ccc2c(-c3cnn4cc(-c5ccc(N6CCNCC6)cc5)cnc34)ccnc2c1 [LDN 193189],Smad1-phosphorylation increased by RSPO2 knockdown,Smad1,reverted increased Smad1-phosphorylation
same,monocyte-macrophage differentiation induced by siRSPO2,"THP-1 cells [1]; THP-1 cells, siRSPO2 plus inhibitor",impaired monocyte-macrophage differentiation
B1,BMP4 signaling,"BMP4 signaling; BMP4 stimulation, treatment with RSPO protein",decreased BMP4 signaling
same,BMP signaling induced by constitutively active ALK3,ALK3RD,specifically inhibited
B2,BMP signaling induced by constitutively active ALK3,ALK3RD,had no effect
